Legend:
Assay type in all cases: biochemical
MMP-8 = molecular target: T1, MMP-8 (Homo sapiens, UniProt P22894); assay: In vitro MMP-8 inhibition test
T1 construct: purchased R&D Systems 908-MP
Text: (§1) The activity strength of the compounds according to the invention towards other MMPs (and therefore their selectivity) is likewise ascertained in in vitro inhibition tests. The MMP-mediated amidolytic cleavage of a suitable peptide substrate also leads here to a fluorescent light increase. The signal intensity of the fluorescent light is directly proportional to the enzyme activity. The active concentration of a test compound at which half of the enzyme is inhibited (50% signal intensity of the fluorescent light) is given as IC50 value.
(§2) Recombinant MMP-8 (R&D Systems, 908-MP) is chemically activated in accordance with the manufacturer's instructions using APMA. 1 μl of the test compound to be analysed (as a solution in DMSO, suitable concentrations e.g. 1 nM to 30 μM) is pipette into 24 μl of activated enzyme (final concentration e.g. 0.5 nM) in reaction buffer (50 mM Tris/HCl pH 7.5, 10 mM CaCl2, 150 mM NaCl, 0.05% Brij®-35) in a white 384-hole microtiter plate (MTP). The enzymatic reaction is started by adding the intramolecularly quenched substrate Mca-Pro-Leu-Gly-Leu-Dpa(Dnp)-Ala-Arg-NH2 (final concentration e.g. 10 μM; R&D Systems, ES-001), such that a total test volume of 50 μl results. The progress of the MMP-8 reaction is measured by measuring the fluorescence intensity (excitation 320 nm, emission 410 nm) over a suitable period (e.g. over 120 min at a temperature of 32° C.).
The IC50 values were determined for racemates and enantiomers from differently generated DMSO stock solutions. Whereas an automatically produced DMSO stock solution from the internal substance logistics was used for racemates by means of a standard method, in the case of enantiomers a freshly produced, manually prepared DMSO stock solution was used in each case for a more precise direct comparison of the enantiomers with one another.

MMP-12 of the rat = molecular target: T2, MMP-12 of the rat (Rattus norvegicus, UniProt Q63341); assay: In vitro MMP-12 inhibition test of the rat
T2 construct: MMP-12 of the rat (Uniprot NP_446415.1; construct L96-V277); made in house; host or cells: E. coli (BL21), pDEco7 vector
Text: as §1
MMP-12 of the rat (Uniprot NP_446415.1; construct L96-V277) is expressed with an additional N-terminal His-Tag and a consecutive TEV cleavage sequence by means of a pDEco7 vector in E. coli (BL21). The thus recombinantly expressed protein forms an intracellular insoluble protein compartment (so-called inclusion body). This is solubilized after separation and intensive washing under denaturing conditions. For this, the inclusion body pellet fraction from a 250 ml E. coli culture is taken up in a volume of 120 ml of buffer A (50 mM Tris pH 7.4, 100 mM NaCl, 0.03 mM ZnCl2, 10 mM CaCl2, 8 M urea). The soluble protein is renatured by in each case dialysing 60 ml of the sample several times at 4-8° C. against buffer B (50 mM Tris pH 7.4, 100 mM NaCl, 0.03 mM ZnCl2, 10 mM CaCl2). After the dialysis, the sample is centrifuged (25 000×g). The folded-back protein is obtained in the supernatant with a yield of 3.7 mg per 250 ml E. coli culture. The thus obtained protein is enzymatically active without further purification operations or protease-mediated cleavage processes.
as §2, with “1” for “Recombinant MMP-8 (R&D Systems, 908-MP) is chemically activated in accordance with the manufacturer's instructions using APMA. 1”, “is pipetted” for “is pipette”, “of MMP-12 protein” for “of activated enzyme”, “e.g. 1” for “e.g. 0.5”, “e.g. 5” for “e.g. 10”, “the MMP-12” for “the MMP-8”
(§3) Tables 3A and 3B below give the IC50 values from these tests for the inhibition of rodent MMPs for representative embodiment examples of the present invention and also for two structurally related comparison compounds from the prior art (as racemate and separated enantiomer)→(in part as average values from several independent individual determinations and rounded to two significant places). The IC50 values were determined for racemates and enantiomers from differently generated DMSO stock solutions. Whereas an automatically created DMSO stock solution from the internal substance logistics was used for racemates by means of a standard method, in the case of enantiomers, in each case a freshly produced, manually prepared DMSO stock solution was used for a more precise direct comparison of the enantiomers with one another.

MMP-9 of the mouse = molecular target: T3, MMP-9 of the mouse (Mus musculus, UniProt P41245); assay: In vitro MMP-9 inhibition test of the mouse
T3 construct: purchased R&D Systems 909-MP
Text: as §1
as §2, with “Recombinant MMP-9 of the mouse” for “Recombinant MMP-8”, “Systems, 909-MP)” for “Systems, 908-MP)”, “is pipetted” for “is pipette”, “e.g. 0.1” for “e.g. 0.5”, “e.g. 5” for “e.g. 10”, “the MMP-9” for “the MMP-8”
as §3

T3 sequence (P41245 108-730): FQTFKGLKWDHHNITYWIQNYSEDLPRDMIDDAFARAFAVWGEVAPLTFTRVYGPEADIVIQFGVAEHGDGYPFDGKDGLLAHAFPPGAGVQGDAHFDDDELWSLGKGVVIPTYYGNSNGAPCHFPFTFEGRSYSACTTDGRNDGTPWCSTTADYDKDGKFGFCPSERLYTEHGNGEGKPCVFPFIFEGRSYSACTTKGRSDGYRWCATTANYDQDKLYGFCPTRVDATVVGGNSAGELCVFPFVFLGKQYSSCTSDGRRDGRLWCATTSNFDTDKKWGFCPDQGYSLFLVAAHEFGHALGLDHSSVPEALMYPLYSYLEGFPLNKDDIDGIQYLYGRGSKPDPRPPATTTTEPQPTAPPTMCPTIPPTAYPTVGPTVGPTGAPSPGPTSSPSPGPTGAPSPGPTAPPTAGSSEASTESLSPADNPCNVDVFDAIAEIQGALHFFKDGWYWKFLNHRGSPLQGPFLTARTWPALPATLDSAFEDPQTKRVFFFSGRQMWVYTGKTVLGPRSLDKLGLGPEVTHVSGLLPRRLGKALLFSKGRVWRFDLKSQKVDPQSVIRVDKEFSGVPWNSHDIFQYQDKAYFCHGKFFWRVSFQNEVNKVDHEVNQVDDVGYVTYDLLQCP
T2 sequence (Q63341 96-277): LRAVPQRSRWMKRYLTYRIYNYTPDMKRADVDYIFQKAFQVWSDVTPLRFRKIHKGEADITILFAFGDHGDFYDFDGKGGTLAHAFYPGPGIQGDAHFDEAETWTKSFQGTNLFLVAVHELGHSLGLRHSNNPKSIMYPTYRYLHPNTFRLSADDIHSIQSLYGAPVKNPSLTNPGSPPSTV
T1 sequence (P22894 101-467): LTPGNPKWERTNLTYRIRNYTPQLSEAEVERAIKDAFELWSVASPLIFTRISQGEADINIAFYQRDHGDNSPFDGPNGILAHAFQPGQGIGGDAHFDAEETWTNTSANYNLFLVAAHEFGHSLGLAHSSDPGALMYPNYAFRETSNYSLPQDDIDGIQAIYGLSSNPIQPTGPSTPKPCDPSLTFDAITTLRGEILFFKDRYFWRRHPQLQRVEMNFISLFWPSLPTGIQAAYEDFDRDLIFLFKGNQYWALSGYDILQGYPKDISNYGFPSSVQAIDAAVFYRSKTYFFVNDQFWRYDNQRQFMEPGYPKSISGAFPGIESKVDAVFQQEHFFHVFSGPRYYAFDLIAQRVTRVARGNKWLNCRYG

Row | IC50 (MMP-8) [nM] | IC50 (MMP-12 of the rat) [nM] | IC50 (MMP-9 of the mouse) [nM] | Compound
1 | 9.2 | < 1 | 71 | O=C(O)[C@H]1[C@H](Cn2nnc3ccccc3c2=O)CC[C@@H]1C(=O)c1ccc(OCc2ccccc2)cc1 (racemic) [Example 1, (+/−)-(1RS,2RS,5SR)-2-[4-(Benzyloxy)benzoyl]-5-[(4-oxo-1,2,3-benzotriazin-3(4H)-yl)methyl]cyclopentanecarboxylic acid (racemate)]
2 | 275 | 24.5 | 905 | CCCCCOc1ccc(C(=O)CC(CCn2nnc3ccccc3c2=O)C(=O)O)cc1 (single isomer, unassigned; enantiomer 1) [Comparative Example B-2, (+)-4-Oxo-2-[2-(4-oxo-1,2,3-benzotriazin-3(4H)-yl)ethyl]-4-[4-(pentyloxy)phenyl]butanoic acid (enantiomer 1)]
3 | 10.1 | < 0.61 | 27.5 | O=C(O)[C@H]1[C@H](Cn2nnc3ccccc3c2=O)CC[C@@H]1C(=O)c1ccc(OCc2ccccc2)cc1 [Example 2, (+)-(1S,2S,5R)-2-[4-(Benzyloxy)benzoyl]-5-[(4-oxo-1,2,3-benzotriazin-3(4H)-yl)methyl]cyclopentanecarboxylic acid]

Further lines, the compound ahead of its results:

Row | Compound | IC50 (MMP-8) [nM] | IC50 (MMP-12 of the rat) [nM] | IC50 (MMP-9 of the mouse) [nM]
4 | O=C(O)[C@H]1[C@H](Cn2nnc3ccccc3c2=O)CC[C@@H]1C(=O)c1ccc(-c2ccc(Cl)cc2)cc1 (racemic) [Comparative Example A-1, (1RS,2RS,5SR)-2-[(4′-chlorobiphenyl-4-yl)carbonyl]-5-[(4-oxo-1,2,3-benzotriazin-3(4H)-yl)methyl]cyclopentanecarboxylic acid (racemate)] | < 0.61 | < 0.61 | 4.9
5 | CCCCCOc1ccc(C(=O)CC(CCn2nnc3ccccc3c2=O)C(=O)O)cc1 (racemic) [Comparative Example B-1, (+/−)-4-Oxo-2-[2-(4-oxo-1,2,3-benzotriazin-3(4H)-yl)ethyl]-4-[4-(pentyloxy)phenyl]butanoic acid (racemate)] | 706 | 29.3 | 2700
6 | O=C(O)[C@@H]1[C@@H](Cn2nnc3ccccc3c2=O)CC[C@H]1C(=O)c1ccc(-c2ccc(Cl)cc2)cc1 (single isomer, unassigned; enantiomer 2) [Comparative Example A-3, (1RS,2RS,5SR)-2-[(4′-Chlorobiphenyl-4-yl)carbonyl]-5-[(4-oxo-1,2,3-benzotriazin-3(4H)-yl)methyl]cyclopentanecarboxylic acid (enantiomer 2)] | < 0.61 | < 0.61 | 1.5

Reference: patent US20170119776A1, “CHIRAL 2,5-DISUBSTITUTED CYCLOPENTANECARBOXYLIC ACID DERIVATIVES AND USE THEREOF” (BAYER PHARMA AKTIENGESELLSCHAFT, priority 2014, published 2017)
